Laboratory results from patent publication US20260053811A1, “METHODS OF TREATING HYPERTENSION IN OBESE SUBJECTS” (Mineralys Therapeutics, Inc., priority 2022, published 2026).

Test system: hypertensive subjects
Assay: Seated automated office blood pressure (AOBP) in randomized, placebo-controlled, dose-ranging study
Assay type: in vivo, human
Settings: Part 1
Procedure: A randomized, double-blinded, placebo-controlled, dose-ranging, multicenter study was conducted to evaluate the effect of orally administered Compound A HBr on blood pressure for the treatment of hypertension in male and female subjects ≥18 years of age.
The study consists of two parts. For enrollment into Part 1 of the study, a subject's value of plasma renin activity (PRA) must be ≤1 ng/mL/h based on morning measurement. If the value of PRA >1 ng/mL/h based on morning measurement, then subjects may be eligible to enter Part 2 of the study.
For Part 1, 163 enrolled subjects ≥18 years of age were randomized into 6 equal treatment groups (1:1:1:1:1:1) to 12.5 mg BID, 25 mg BID, 12.5 mg QD, 50 mg QD, 100 mg QD, or placebo. After a review of interim clinical data, the 2 lowest dose levels (12.5 mg QD and 12.5 mg BID) were stopped for future randomization due to a lack of consistent meaningful reduction of blood pressure, but the patients randomized to that point remained in the study through completion. Thus, after the review of interim clinical data, subjects were randomized into 4 equal treatment groups (1:1:1:1) to 25 mg BID, 50 mg QD, 100 mg QD, or placebo.
For Part 2, 36 enrolled subjects ≥18 years of age were randomized (5:1) to either 100 mg QD Compound A HBr or placebo such that the Compound A HBr treatment group consisted of approximately 30 subjects and the placebo treatment group will consist of approximately 6 subjects.
Subjects orally administered the assigned study drug (Compound A HBr or placebo) according to the assigned dosing regimen for 8 weeks beginning on Study Day 1. All subjects in Part 1 (regardless of dosing group) received BID dosing to preserve the integrity of the blind; active drug is administered as the morning dose for all QD dose groups. Subjects returned to the research facility or were seen by the clinical investigator or approved home health care professional at the end of Study Weeks 1, 2, 3, 4, 5, 6, 7, and 8 (±2 days) for protocol-defined efficacy and safety assessments and procedures, assessment of adverse events (AEs), and confirmation of compliance with study drug usage. Subjects also completed a telephone visit and blood pressure (BP) check at home approximately 3 days post last dose of study drug. Subjects attended up to 14 full clinic visits, including a pre-Screening visit, a Screening/start of Placebo Run-in visit, a second visit during Placebo Run-in, a clinic visit to initiate the ABPM procedure, a Randomization visit, 8 weekly visits during double-blind treatment, and an end-of-study visit scheduled 4 weeks after the last study treatment for final efficacy and safety assessments.
An automated oscillometric sphygmomanometer device was used to measure the subjects' systolic and diastolic blood pressure in office after approximately 5 minutes of rest in the seated position.
The primary endpoint is the change in office-measured (mean of last 2 of 5 unattended measurements using an automated oscillometric sphygmomanometer device after approximately 5 minutes of rest in the seated position) systolic blood pressure (SBP) from baseline to the end of Study Week 8.
Secondary endpoints of this study were: • (a) Change in 24-hour ambulatory blood pressure monitoring (ABPM) parameters (systolic and diastolic) from baseline to the end of Study Week 7. • (b) Change in office-measured SBP from baseline to the end of Study Weeks 1, 2, 3, 4, 5, 6, and 7. • (c) Change in office-measured diastolic blood pressure (DBP) from baseline to the end of Study Weeks 1, 2, 3, 4, 5, 6, 7, and 8. • (d) Proportion of subjects who achieve office-measured BP of ≤130/80 mm Hg by the end of Study Week 8.

[1] = 50 mg QD, Systolic Blood Pressure Tertile at Baseline High
[2] = 50 mg QD, Systolic Blood Pressure Tertile at Baseline Low
[3] = 50 mg QD, Systolic Blood Pressure Tertile at Baseline Middle
[4] = 50 mg QD, Thiazide Diuretic Use at Baseline No
[5] = 50 mg QD, Thiazide Diuretic Use at Baseline Yes

Structure (SMILES): CC(=O)N[C@H]1CC[C@H](NC(=O)CN2CCN(c3nncc(-c4ccc(C)cc4)n3)CC2)CC1 [Compound A HBr]
- Mean (SD) Change from Baseline at Week 8 in Automated Office-Measured Diastolic Blood Pressure (50 mg QD, Seated SBP Tertile Middle): −10.63 (7.25) mmHg
- Mean (SD) Automated Office-Measured Diastolic Blood Pressure at Wk 8 (50 mg QD, Sex Female): 75.67 (12.10) mmHg
- Mean (SD) Automated Office-Measured Systolic Blood Pressure at Wk 8 (50 mg QD, Sex Female): 125.67 (11.97) mmHg
- Mean (SD) Change from Baseline at Week 8 in Automated Office-Measured Diastolic Blood Pressure (50 mg QD, Sex Female): −9.20 (10.37) mmHg
- Mean (SD) Change from Baseline at Week 8 in Automated Office-Measured Systolic Blood Pressure (50 mg QD, Sex Female): −15.97 (18.44) mmHg
- Mean (SD) Automated Office-Measured Diastolic Blood Pressure at Wk 8 (50 mg QD, Sex Male): 78.15 (6.52) mmHg
- Mean (SD) Change from Baseline at Week 8 in Automated Office-Measured Diastolic Blood Pressure (50 mg QD, Sex Male): −6.73 (7.65) mmHg
- Mean (SD) Change from Baseline at Week 8 in Automated Office-Measured Systolic Blood Pressure (50 mg QD, Sex Male): −9.96 (15.67) mmHg
- Mean (SD) Automated Office-Measured Systolic Blood Pressure at Wk 8 [1]: 127.25 (17.59) mmHg
- Mean (SD) Change from Baseline at Week 8 in Automated Office-Measured Systolic Blood Pressure [1]: −29.25 (14.31) mmHg
- Mean (SD) Automated Office-Measured Systolic Blood Pressure at Wk 8 [2]: 130.25 (12.04) mmHg
- Mean (SD) Change from Baseline at Week 8 in Automated Office-Measured Systolic Blood Pressure [2]: −2.58 (12.54) mmHg
- Mean (SD) Automated Office-Measured Systolic Blood Pressure at Wk 8 [3]: 127.63 (13.35) mmHg
- Mean (SD) Change from Baseline at Week 8 in Automated Office-Measured Systolic Blood Pressure [3]: −13.00 (14.05) mmHg
- Automated Office-Measured Diastolic Blood Pressure, Week 8, Mean (SD) [4]: 78.00 (6.42) mmHg
- Mean (SD) Automated Office-Measured Systolic Blood Pressure at Wk 8 [4]: 130.00 (13.65) mmHg
- Mean (SD) Change from Baseline at Week 8 in Automated Office-Measured Diastolic Blood Pressure [4]: −4.71 (7.77) mmHg
- Mean (SD) Change from Baseline at Week 8 in Automated Office-Measured Systolic Blood Pressure [4]: −7.67 (15.11) mmHg
- Automated Office-Measured Diastolic Blood Pressure, Week 8, Mean (SD) [5]: 75.94 (11.89) mmHg
- Mean (SD) Automated Office-Measured Systolic Blood Pressure at Wk 8 [5]: 127.63 (14.08) mmHg
- Mean (SD) Change from Baseline at Week 8 in Automated Office-Measured Diastolic Blood Pressure [5]: −10.56 (9.49) mmHg
- Mean (SD) Change from Baseline at Week 8 in Automated Office-Measured Systolic Blood Pressure [5]: −17.31 (17.91) mmHg
- Mean (SD) Automated Office-Measured Systolic Blood Pressure at Wk 8 (100 mg QD, ACEi/ARB No): 116.80 (7.19) mmHg
- Mean (SD) Change from Baseline at Week 8 in Automated Office-Measured Systolic Blood Pressure (100 mg QD, ACEi/ARB No): −23.70 (8.89) mmHg
- Mean (SD) Automated Office-Measured Systolic Blood Pressure at Wk 8 (100 mg QD, ACEi/ARB Yes): 134.90 (13.12) mmHg
- Mean (SD) Change from Baseline at Week 8 in Automated Office-Measured Systolic Blood Pressure (100 mg QD, ACEi/ARB Yes): −11.68 (13.23) mmHg
- Mean (SD) Automated Office-Measured Diastolic Blood Pressure at Wk 8 (100 mg QD, ACEi/ARBs No): 71.40 (10.62) mmHg
- Mean (SD) Change from Baseline at Week 8 in Automated Office-Measured Diastolic Blood Pressure (100 mg QD, ACEi/ARBs No): −9.00 (6.21) mmHg
- Mean (SD) Automated Office-Measured Diastolic Blood Pressure at Wk 8 (100 mg QD, ACEi/ARBs Yes): 73.40 (9.37) mmHg
- Mean (SD) Change from Baseline at Week 8 in Automated Office-Measured Diastolic Blood Pressure (100 mg QD, ACEi/ARBs Yes): −4.58 (8.10) mmHg
- Mean (SD) Automated Office-Measured Diastolic Blood Pressure at Wk 8 (100 mg QD, AHTs 2): 74.09 (4.66) mmHg
- Mean (SD) Automated Office-Measured Systolic Blood Pressure at Wk 8 (100 mg QD, AHTs 2): 124.82 (13.25) mmHg
- Mean (SD) Change from Baseline at Week 8 in Automated Office-Measured Diastolic Blood Pressure (100 mg QD, AHTs 2): −8.09 (8.81) mmHg
- Mean (SD) Change from Baseline at Week 8 in Automated Office-Measured Systolic Blood Pressure (100 mg QD, AHTs 2): −17.95 (15.83) mmHg
- Mean (SD) Automated Office-Measured Diastolic Blood Pressure at Wk 8 (100 mg QD, AHTs ≥3): 72.14 (12.08) mmHg
- Mean (SD) Automated Office-Measured Systolic Blood Pressure at Wk 8 (100 mg QD, AHTs ≥3): 136.36 (13.05) mmHg
- Mean (SD) Change from Baseline at Week 8 in Automated Office-Measured Diastolic Blood Pressure (100 mg QD, AHTs ≥3): −3.39 (6.60) mmHg
- Mean (SD) Change from Baseline at Week 8 in Automated Office-Measured Systolic Blood Pressure (100 mg QD, AHTs ≥3): −11.04 (10.45) mmHg
- Mean (SD) Automated Office-Measured Diastolic Blood Pressure at Wk 8 (100 mg QD, Age 65-79 yr): 72.80 (7.89) mmHg
- Mean (SD) Automated Office-Measured Systolic Blood Pressure at Wk 8 (100 mg QD, Age 65-79 yr): 133.73 (12.53) mmHg
- Mean (SD) Change from Baseline at Week 8 in Automated Office-Measured Diastolic Blood Pressure (100 mg QD, Age 65-79 yr): −4.37 (7.01) mmHg
- Mean (SD) Change from Baseline at Week 8 in Automated Office-Measured Systolic Blood Pressure (100 mg QD, Age 65-79 yr): −9.53 (11.49) mmHg
- Mean (SD) Automated Office-Measured Diastolic Blood Pressure at Wk 8 (100 mg QD, Age <65 yr): 78.33 (9.69) mmHg
- Mean (SD) Automated Office-Measured Systolic Blood Pressure at Wk 8 (100 mg QD, Age <65 yr): 129.33 (20.63) mmHg
- Mean (SD) Change from Baseline at Week 8 in Automated Office-Measured Diastolic Blood Pressure (100 mg QD, Age <65 yr): −8.67 (10.16) mmHg
- Mean (SD) Change from Baseline at Week 8 in Automated Office-Measured Systolic Blood Pressure (100 mg QD, Age <65 yr): −22.75 (14.75) mmHg
